This is an account of results in paper PMC6414531, “Contrasting in vitro and in vivo methanol oxidation activities of lanthanide-dependent alcohol dehydrogenases XoxF1 and ExaF from Methylobacterium extorquens AM1” (Scientific Reports, 2019).

The target of data set [1] is T1, XoxF1 MDH (XoxF1-La) (Methylorubrum extorquens, UniProt C5B120).
T1 construct: C-terminal hexahistidine tag with rTEV site, tag cleaved; 1:1 La3+ per protomer, PQQ-containing
T1 sequence (C5B120 22-601): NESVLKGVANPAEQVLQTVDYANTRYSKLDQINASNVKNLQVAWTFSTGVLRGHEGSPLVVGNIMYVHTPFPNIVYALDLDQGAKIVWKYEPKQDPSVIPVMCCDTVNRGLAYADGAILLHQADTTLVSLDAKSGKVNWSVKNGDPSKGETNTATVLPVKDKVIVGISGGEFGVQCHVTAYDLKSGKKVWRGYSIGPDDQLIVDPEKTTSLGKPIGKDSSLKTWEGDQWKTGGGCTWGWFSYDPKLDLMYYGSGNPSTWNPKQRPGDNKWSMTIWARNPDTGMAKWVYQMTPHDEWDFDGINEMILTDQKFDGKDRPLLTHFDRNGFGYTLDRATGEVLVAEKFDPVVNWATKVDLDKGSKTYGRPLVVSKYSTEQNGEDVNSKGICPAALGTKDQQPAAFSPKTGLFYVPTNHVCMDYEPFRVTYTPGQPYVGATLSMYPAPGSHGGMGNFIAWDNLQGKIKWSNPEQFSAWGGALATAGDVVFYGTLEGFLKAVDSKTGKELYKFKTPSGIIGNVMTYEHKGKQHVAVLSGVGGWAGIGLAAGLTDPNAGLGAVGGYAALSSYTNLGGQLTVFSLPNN
The experiment in a line: UV-visible spectroscopy of purified enzyme. The data set is classed as binding. The settings on record: co-purified prosthetic group.

The target of data set [2] is T2, ExaF (ExaF-La, Ln-dependent ethanol dehydrogenase) (Methylorubrum extorquens, UniProt C5AXV8).
T2 construct: native enzyme in cell-free extract of MDH-3 mutant grown with methanol and La3+
T2 sequence (C5AXV8 27-587): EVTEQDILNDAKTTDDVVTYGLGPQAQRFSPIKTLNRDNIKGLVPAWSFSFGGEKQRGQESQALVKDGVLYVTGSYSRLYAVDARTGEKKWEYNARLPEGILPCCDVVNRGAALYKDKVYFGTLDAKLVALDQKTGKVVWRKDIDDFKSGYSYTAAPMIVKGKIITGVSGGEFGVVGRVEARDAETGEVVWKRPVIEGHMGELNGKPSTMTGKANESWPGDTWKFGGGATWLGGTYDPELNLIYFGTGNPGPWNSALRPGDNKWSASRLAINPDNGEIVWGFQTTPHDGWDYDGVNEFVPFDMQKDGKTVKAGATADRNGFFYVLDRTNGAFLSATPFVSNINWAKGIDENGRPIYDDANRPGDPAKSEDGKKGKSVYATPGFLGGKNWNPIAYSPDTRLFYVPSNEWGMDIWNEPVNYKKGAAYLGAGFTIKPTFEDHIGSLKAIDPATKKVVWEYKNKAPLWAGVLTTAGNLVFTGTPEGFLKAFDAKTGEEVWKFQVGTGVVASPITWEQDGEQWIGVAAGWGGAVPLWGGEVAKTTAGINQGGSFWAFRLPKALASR
As to the kind of experiment: PMS-mediated DCPIP reduction in cell-free extract. The data set is classed as biochemical. The settings on record: MDH-3 mutant strain (lacks MxaF, XoxF1, XoxF2), grown with methanol and La3+.

Data set [3] deals with T1, XoxF1 MDH (XoxF1-La). As to the kind of experiment: PMS-mediated DCPIP reduction at […] nm, Michaelis-Menten fit. The data set is classed as biochemical. The settings on record: La3+-loaded enzyme (1:1), PQQ; PMS/DCPIP as electron acceptors.
Substrate in the data set “purified protein”: CCO
As to the kind of experiment: purified protein. The settings on record: La3+-loaded enzyme (1:1), PQQ; PMS/DCPIP as electron acceptors.

Consider `O=C(O)c1cc(C(=O)O)c2c(n1)C(=O)C(=O)c1cc(C(=O)O)[nH]c1-2` [PQQ], for which the molar ratio result at XoxF1 MDH (XoxF1-La) [1] is given as “PQQ was detected as a prosthetic group via UV-visible spectroscopy”. The term Km denotes the concentration of substrate that gives half-maximal velocity. Turning to `C=O` [formaldehyde], in data set [2], the specific activity entry is “confirming that ExaF can oxidize formaldehyde in vivo”. The Km on XoxF1 MDH (XoxF1-La) [3] is 0.096 ± 0.006 mM. For the molecule `CO` [methanol], on XoxF1 MDH (XoxF1-La) [3], the Michaelis constant (Km) was 0.044 ± 0.005 mM.

B1: XoxF1 MDH (XoxF1-La) (Methylorubrum extorquens AM1) (protein)
chain: T1 sequence (C5B120 22-601)
Broadly, the Vmax is the rate approached at saturating substrate. Usually kcat/Km stands for the second-order rate constant that governs catalysis at low substrate concentration. Consider B1, for which, in the data set “purified protein”, the Km came to 67 ± 3 µM, the maximal velocity (Vmax) came out at 6.21 µmol/min/mg and the kcat/Km came to 194000 M⁻¹ s⁻¹.
